Assay results: patent US7261876B2, “Multivalent constructs for therapeutic and diagnostic applications” (Bracco International BV, priority 2002, dated 2007)
“Also recorded” adds a separate entry of the source. Positions of bridges follow the written chain, without caps; N, C: chain ends. Non-standard residues stand in square brackets, D forms with d. Residues, ends and D or L forms follow the SMILES beside them. Lys(ivDde) = CC(C)CC(NCCCC[C@H](N)C(=O)O)=C1C(=O)CC(C)(C)CC1=O

Tests used:
[1] = target: T1, KDR expressed by transfected 293H cells (Homo sapiens, UniProt P35968); experiment: Competition with 125I-labeled VEGF for binding to KDR-transfected 293H cells
T1 construct: Both PCR products were digested with Not1 and ligated together to create the full-length receptor; V5-His (encoded by the vector); expressed in transfected cells; host or cells: 293H cells (Invitrogen cat. # 11631), transient lipofectamine 2000 transfection
T1 sequence (P35968 20-1356): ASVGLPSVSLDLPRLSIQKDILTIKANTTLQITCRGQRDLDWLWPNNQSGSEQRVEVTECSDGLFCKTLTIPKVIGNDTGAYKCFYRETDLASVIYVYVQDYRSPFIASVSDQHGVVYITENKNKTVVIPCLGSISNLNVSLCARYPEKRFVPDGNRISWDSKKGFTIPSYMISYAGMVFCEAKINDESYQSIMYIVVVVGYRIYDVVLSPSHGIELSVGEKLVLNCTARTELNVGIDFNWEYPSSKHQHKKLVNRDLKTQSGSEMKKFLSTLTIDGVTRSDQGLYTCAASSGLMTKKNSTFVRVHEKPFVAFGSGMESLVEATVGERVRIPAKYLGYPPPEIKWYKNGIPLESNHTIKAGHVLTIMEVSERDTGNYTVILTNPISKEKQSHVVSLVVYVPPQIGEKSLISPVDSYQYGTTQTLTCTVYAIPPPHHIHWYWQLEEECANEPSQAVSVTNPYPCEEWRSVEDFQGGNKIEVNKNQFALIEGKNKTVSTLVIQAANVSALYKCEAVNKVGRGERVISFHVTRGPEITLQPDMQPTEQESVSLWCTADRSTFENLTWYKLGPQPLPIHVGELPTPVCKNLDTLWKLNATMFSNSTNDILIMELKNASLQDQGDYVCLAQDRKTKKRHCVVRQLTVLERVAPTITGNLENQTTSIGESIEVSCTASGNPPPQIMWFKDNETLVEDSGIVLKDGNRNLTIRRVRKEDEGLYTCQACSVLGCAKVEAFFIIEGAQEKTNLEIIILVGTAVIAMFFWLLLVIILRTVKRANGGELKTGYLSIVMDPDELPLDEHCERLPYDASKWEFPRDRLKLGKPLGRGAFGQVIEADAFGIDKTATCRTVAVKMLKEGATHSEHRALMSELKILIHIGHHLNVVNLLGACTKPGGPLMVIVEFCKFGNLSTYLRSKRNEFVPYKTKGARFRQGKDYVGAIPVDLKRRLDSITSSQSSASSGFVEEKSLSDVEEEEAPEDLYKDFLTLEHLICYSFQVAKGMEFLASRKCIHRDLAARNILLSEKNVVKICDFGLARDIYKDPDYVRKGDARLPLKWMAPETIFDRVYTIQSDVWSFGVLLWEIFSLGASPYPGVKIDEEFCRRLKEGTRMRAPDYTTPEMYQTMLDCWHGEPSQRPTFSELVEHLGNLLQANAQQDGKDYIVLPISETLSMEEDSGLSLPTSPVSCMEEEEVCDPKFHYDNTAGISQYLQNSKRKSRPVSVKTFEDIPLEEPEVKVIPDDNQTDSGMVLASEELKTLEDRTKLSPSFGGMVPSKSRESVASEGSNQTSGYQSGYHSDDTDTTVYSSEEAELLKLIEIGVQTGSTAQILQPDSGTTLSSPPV
Method: Once prepared, the solutions were kept on ice until ready to use.
Cells were used 24 h after transfection, and to prepare the cells for the assay, they were washed 3 times with room temperature M199 medium and placed in the refrigerator. […] After incubating at 4° C. for 2 h, the plates were washed 5 times with cold binding buffer, gently blotted dry and checked under a microscope for cell loss. 100 μL of solubilizing solution (2% Triton X-100, 10% Glycerol, 0.1% BSA) was added to each well and the plates were incubated at room temperature for 30 minutes. The solubilizing solution in each well was mixed by pipeting up and down, and transferred to 1.2 mL tubes. Each well was washed twice with 100 μL of solubilizing solution and the washes were added to the corresponding 1.2 mL tube.
After washing the cells, the bound radioactivity was quantitated on a gamma counter.

[2] = target: T2, KDR (Homo sapiens, UniProt P35968); experiment: VEGF-induced KDR receptor activation (phosphorylation) assay in HUVECs; format: cell-based; conditions: for inhibition of KDR activation: 10 μM
T2 construct: host or cells: HUVEC
T2 sequence (P35968 20-1356): as above
Text: Human umbilical vein endothelial cells (HUVECs) (Biowhittaker Cat No. CC-2519) were obtained frozen on dry ice and stored in liquid nitrogen until thawing. These cells were thawed, passaged, and maintained as described by the manufacturer in EGM-MV medium (Biowhittaker Cat No. CC-3125). Cells seeded into 100 mm dishes were allowed to become confluent, then cultured overnight in basal EBM medium lacking serum (Biowhittaker Cat No. CC-3121). The next morning, the medium in the dishes was replaced with 10 mL fresh EBM medium at 37° C. containing either no additive (negative control), 5 ng/mL VEGF (Calbiochem Cat No. 676472 or Peprotech Cat No. 100-20) (positive control), or 5 ng/mL VEGF plus the indicated concentration of the KDR-binding peptide (prepared as described above). In some cases, a neutralizing anti-KDR antibody (Cat No. AF357, R&D Systems) was used as a positive control inhibitor of activation. In such cases, the antibody was pre-incubated with the test cells for 30 min at 37° C. prior to the addition of fresh medium containing both VEGF and the antibody. After incubating the dishes 5 min in a 37° C. tissue culture incubator they were washed three times with ice-cold Dulbecco's phosphate buffered saline (D-PBS) containing calcium and magnesium and placed on ice without removing the last 10 mL of D-PBS. The first dish of a set was drained and 0.5 mL of Triton lysis buffer was added (20 mM Tris base pH 8.0, 137 mM NaCl, 10% glycerol, 1% Triton X-100, 2 mM EDTA (ethylenediaminetetraacetic acid), 1 mM PMSF (phenylmethylsulfonylfluoride), 1 mM sodium orthovanadate, 100 mM NaF, 50 mM sodium pyrophosphate, 10 μg/mL leupeptin, 10 μg/mL aprotinin). The cells were quickly scraped into the lysis buffer using a cell scraper (Falcon, Cat No. 353087), dispersed by pipeting up and down briefly, and the resulting lysate was transferred to the second drained dish of the pair. Another 0.5 mL of lysis buffer was used to rinse out the first dish then transferred to the second dish, which was then also scraped and dispersed. The pooled lysate from the two dishes was transferred to a 1.5 mL Eppindorf tube. The above procedure was repeated for each of the controls and test samples (KDR-binding peptides), one at a time. The lysates were stored on ice until all the samples had been processed. At this point samples were either stored at −70° C. or processed to the end of the assay without interruption.
The lysates, either freshly prepared or frozen and thawed, were precleared by adding 20 μL of protein A-sepharose beads (Sigma 3391, preswollen in D-PBS), washed three times with a large excess of D-PBS, reconstituted with 6 mL D-PBS to generate a 50% slurry) and rocked at 4° C. for 30 min. The beads were pelleted by centrifugation for 2 min in a Picofuge (Stratgene, Cat No. 400550) at 2000×g and the supernatants transferred to new 1.5 mL tubes. 20 μg of anti-Flk-1 antibody (Santa Cruz Biotechnology, Cat No. sc-504) was added to each tube, and the tubes were incubated overnight (16–18 h) at 4° C. on a rotator to immunoprecipitate KDR. The next day 40 μL of protein A-sepharose beads were added to the tubes, which were then incubated at 4° C. for 1 h on a rotator. The beads in each tube were subsequently washed three times by centrifuging for 2 min in a Picofuge, discarding the supernatant, and dispersing the beads in 1 mL freshly added TBST buffer (20 mM Tris base pH 7.5, 137 mM NaCl, and 0.1% Tween 20). After centrifuging and removing the liquid from the last wash, 40 μL of Laemmli SDS-PAGE sample buffer (Bio-Rad, Cat No. 161-0737) was added to each tube and the tubes were capped and boiled for 5 min. After cooling, the beads in each tube were pelleted by centrifuging and the supernatants containing the immunoprecipitated KDR were transferred to new tubes and used immediately or frozen and stored at −70° C. for later analysis.
Detection of phosphorylated KDR as well as total KDR in the immunoprecipitates was carried out by immunoblot analysis. […]

## Ac-AGPTWC*EDDWYYC*WLFGT-GGGK-(Biotin-JJ-)-NH2 [P12-XB]
[1]; 0.3 μM peptide
  percentage inhibition of 125I-labeled VEGF binding: 80.96±3.8%
[1]; 30 μM peptide
  percentage inhibition of 125I-labeled VEGF binding: 104.48±2.07%

## AGDSWCSTEYTYCEMIGT [P4]
[1]
  competition with 125I-VEGF for binding to KDR-transfected cells: did not compete significantly

## CC(=O)NCC(=O)N[C@@H](CC(=O)O)C(=O)N[C@@H](Cc1ccc(O)cc1)C(=O)N1CCC[C@H]1C(=O)N[C@@H](Cc1c[nH]c2ccccc12)C(=O)N[C@H]1CSSC[C@@H](C(=O)N[C@H](C(=O)N2CCC[C@H]2C(=O)N[C@@H](Cc2c[nH]c3ccccc23)C(=O)N[C@@H](CC(=O)O)C(=O)N2CCC[C@H]2C(=O)NCC(=O)NCC(=O)NCC(=O)N[C@@H](CCCCN)C(N)=O)C(C)C)NC(=O)[C@H](Cc2ccccc2)NC(=O)[C@H](CCCNC(=N)N)NC(=O)[C@H]([C@@H](C)O)NC(=O)[C@H](C(C)C)NC(=O)[C@H](CO)NC(=O)[C@H](CC(=O)O)NC(=O)[C@H](CO)NC(=O)[C@H](CC(C)C)NC(=O)[C@H](CCC(=O)O)NC(=O)[C@H](Cc2c[nH]cn2)NC1=O [P15-D] (Ac-GDYPWCHELSDSVTRFCVPWDPGGGK-NH2; disulfide 6-17)
[2]
  inhibition of KDR activation: did not produce significant inhibition of KDR activation

## Ac-AQAFPRFGGDDYWIQQYLRYTDGGK-NH2 [P10-D]
[2]; concentration not given
  inhibition of VEGF-induced activation of KDR: inhibit activation of KDR; also recorded: able to largely inhibit the VEGF-induced phosphorylation of KDR

## CSCC[C@@H]1NC(=O)[C@H]([C@@H](C)O)NC(=O)[C@@H](NC(=O)[C@@H](NC(=O)[C@H](CC(=O)O)NC(=O)[C@@H]2CCCN2C(=O)[C@H](CC(=O)O)NC(=O)CNC(C)=O)[C@@H](C)O)CSSC[C@@H](C(=O)N[C@@H](Cc2ccccc2)C(=O)N2CCC[C@H]2C(=O)N[C@@H](C)C(=O)N[C@@H](CC(=O)O)C(=O)N2CCC[C@H]2C(=O)NCC(=O)NCC(=O)NCC(=O)N[C@@H](CCCCN)C(N)=O)NC(=O)[C@H](Cc2ccc(O)cc2)NC(=O)[C@H](Cc2c[nH]c3ccccc23)NC(=O)[C@H](CCCNC(=N)N)NC(=O)CNC(=O)[C@H](CO)NC(=O)[C@H](CC(=O)O)NC(=O)CNC(=O)[C@H](Cc2c[nH]c3ccccc23)NC1=O [P8-D] (Ac-GDPDTCTMWGDSGRWYCFPADPGGGK-NH2; disulfide 6-17)
[2]; HUVEC, read-out: inhibition of VEGF-induced KDR phosphorylation
  inhibition at 10 µM: ≥ 50%

## CSCC[C@@H]1NC(=O)[C@H](CCC(=O)O)NC(=O)[C@@H](NC(=O)[C@H](Cc2c[nH]c3ccccc23)NC(=O)[C@H](CO)NC(=O)CNC(=O)[C@H](CC(=O)O)NC(=O)CNC(C)=O)CSSC[C@@H](C(=O)N[C@@H](Cc2ccccc2)C(=O)N[C@@H](CO)C(=O)N[C@@H](CC(=O)O)C(=O)N[C@@H](CC(=O)O)C(=O)N2CCC[C@H]2C(=O)NCC(=O)NCC(=O)NCC(=O)N[C@@H](CCCCN)C(N)=O)NC(=O)[C@H](CC(N)=O)NC(=O)[C@H](Cc2c[nH]c3ccccc23)NC(=O)[C@H](CCCCNC(CC(C)C)=C2C(=O)CC(C)(C)CC2=O)NC(=O)CNC(=O)[C@H](C(C)C)NC(=O)[C@H](CC(=O)O)NC(=O)[C@H](CCC(N)=O)NC(=O)[C@H](CCCNC(=N)N)NC1=O [P18-E] (Ac-GDGSWCEMRQDVG[Lys(ivDde)]WNCFSDDPGGGK-NH2; disulfide 6-17)
[2]
  inhibition of KDR activation: did not produce significant inhibition of KDR activation
